This passage reports IC50 results from patent US10030047B2 (Hoffmann-La Roche Inc., priority 2015, dated 2018).

SMILES strings stand for the structures.

The test system of the experiment is A. baumannii strain ATCC17978. Put plainly: 50% growth inhibitory concentration (IC50) determination, Iso-Sensitest broth. The class given is cell-based. To be noted: Acinetobacter baumannii; A. baumannii ATCC17978; Iso-Sensitest medium; OD 600 nm over 16 h; read-out: IC50 ATCC17978. The protocol:
The in vitro antimicrobial activity of the compounds was alternatively determined according to the following procedure:
The assay used a 10-points Iso-Sensitest broth medium to measure quantitatively the in vitro activity of the compounds against A. baumannii ATCC 17978.
Stock compounds in DMSO were serially twofold diluted (e.g. range from 50 to 0.097 μM final concentration) in 384 wells microtiter plates and inoculated with 49 μl the bacterial suspension in Iso-Sensitest medium to have a final cell concentration of ˜5×10^(5) CFU/ml in a final volume/well of 50 ul/well. Microtiter plates were incubated at 35±2° C.
Bacterial cell growth was determined with the measurement of optical density at λ=600 nm each 20 minutes over a time course of 16 h.
Growth inhibition was calculated during the logarithmic growth of the bacterial cells with determination of the concentration inhibiting 50% (IC50) and 90% (IC90) of the growth.
Tables 3, 4 and 5 provide the 50% growth inhibitory concentrations (IC50) in micromoles per liter of the compounds of present invention obtained against the A. baumannii strain ATCC17978.
Broadly, the IC50 is the concentration needed to halve the response being measured. Consider `CN1C(=O)[C@H](CCCN)NC(=O)[C@H](CCCN)NCc2ccccc2Sc2c(Cl)cc(Cl)cc2CNC(=O)[C@@H]1Cc1c[nH]c2ccccc12` [Example 133, (12S,15S,18S)— 15,18-Bis-(3-amino-propyl)-4,6-dichloro-12-(1H-indol-3-ylmethyl)-13-methyl-2-thia-10,13,16,19-tetraaza-tricyclo[19.4.0.0*3,8*]pentacosa-1(25),3,5,7,21,23-hexaene-11,14,17-trione], for which the half-inhibitory concentration (IC50) came out at 100 nM.

Consider `CN1C(=O)[C@H](CCCCN)NC(=O)[C@H](CCCO)NCc2cccnc2Sc2c(Cl)cc(Cl)cc2CNC(=O)[C@@H]1Cc1c[nH]c2ccccc12` [Example 252, (11S,14S,17S)-14-(4-Amino-butyl)-23,25-dichloro-11-(3-hydroxy-propyl)-17-(1H-indol-3-ylmethyl)-16-methyl-2-thia-4,10,13,16,19-pentaaza-tricyclo[19.4.0.0*3,8*]pentacosa-1(25),3(8),4,6,21,23-hexaene-12,15,18-trione], for which the IC50 came out at 500 nM.

In the case of `CN1C(=O)[C@H](CCCCN)NC(=O)[C@H](CCCN)NCc2ccccc2Sc2cnc(Cl)cc2CNC(=O)[C@@H]1Cc1c[nH]c2ccccc12` [Example 153], the IC50 is < 390 nM.

For the molecule `CN(C)c1nccc2c1CNC(=O)[C@H](Cc1c[nH]c3ccccc13)N(C)C(=O)[C@H](CCCCN)NC(=O)[C@H](CCCN)NCc1cccnc1S2` [Example 237, (7S,10S,13S)-13-((1H-Indol-3-yl)methyl)-10-(4-aminobutyl)-7-(3-aminopropyl)-17-(dimethylamino)-12-methyl-6,7,9,10,12,13,15,16-octahydrodipyrido [2,3-b:3′,4′-p][1,5,8,11,14]thiatetraazacycloheptadecine-8,11,14(5H)-trione], the IC50 is 800 nM.

`CN1C(=O)[C@H](CCCCN)NC(=O)[C@H](CCCN)NCc2cccnc2Sc2c(Cl)ccc(-c3ccc(OCC(=O)O)cc3)c2CNC(=O)[C@@H]1Cc1c[nH]c2ccccc12` [Example 241, {4-[(11S,14S,17S)-14-(4-Amino-butyl)-11-(3-amino-propyl)-25-chloro-17-(1H-indol-3-ylmethyl)-16-methyl-12,15,18-trioxo-2-thia-4,10,13,16,19-pentaaza-tricyclo[19.4.0.0*3,8*]pentacosa-1(25),3(8),4,6,21,23-hexaen-22-yl]-phenoxy}-acetic acid]: the IC50 was < 200 nM.

As for `CN1C(=O)[C@H](CCCCN)NC(=O)[C@H](CCCN)NCc2cccnc2Sc2ccnc(-c3cccnc3)c2CNC(=O)[C@@H]1Cc1c[nH]c2ccccc12` [Example 238, (7S,10S,13S)-13-((1H-Indol-3-yl)methyl)-10-(4-aminobutyl)-7-(3-aminopropyl)-12-methyl-17-(pyridin-3-yl)-6,7,9,10,12,13,15,16-octahydrodipyrido[2,3-b:3′,4′-p][1,5,8,11,14]thiatetraazacycloheptadecine-8,11,14(5H)-trione], the IC50 worked out at 5600 nM.

For the molecule `CN1C(=O)[C@H](CCCCN)NC(=O)[C@H](CCCN)NCc2cccnc2Sc2c(Cl)ccc(-c3cccc(CCN)c3)c2CNC(=O)[C@@H]1Cc1c[nH]c2ccccc12` [Example 244, (11S,14S,17S)-14-(4-Amino-butyl)-22-[3-(2-amino-ethyl)-phenyl]-11-(3-amino-propyl)-25-chloro-17-(1H-indol-3-ylmethyl)-16-methyl-2-thia-4,10,13,16,19-pentaaza-tricyclo[19.4.0.0*3,8*]pentacosa-1(25),3(8),4,6,21,23-hexaene-12,15,18-trione], the IC50 is < 400 nM.

Take `CN(C)CCNC(=O)c1ccc(-c2ccc(Cl)c3c2CNC(=O)[C@H](Cc2c[nH]c4ccccc24)N(C)C(=O)[C@H](CCCCN)NC(=O)[C@H](CCCN)NCc2cccnc2S3)cc1` [Example 248, 4-[(11S,14S,17S)-14-(4-Amino-butyl)-11-(3-amino-propyl)-25-chloro-17-(1H-indol-3-ylmethyl)-16-methyl-12,15,18-trioxo-2-thia-4,10,13,16,19-pentaaza-tricyclo[19.4.0.0*3,8*]pentacosa-1(25),3(8),4,6,21,23-hexaen-22-yl]-N-(2-dimethylamino-ethyl)-benzamide]: the IC50 is < 100 nM.

With `CN1C(=O)[C@H](CCCCN)NC(=O)[C@H](CCCN)NCc2cccnc2Sc2c(Cl)ccc(C(F)(F)F)c2CNC(=O)[C@@H]1Cc1c[nH]c2ccc(Cl)cc12` [Example 135, (11S,14S,17S)-14-(4-Amino-butyl)-11-(3-amino-propyl)-25-chloro-17-(5-chloro-1H-indol-3-ylmethyl)-16-methyl-22-trifluoromethyl-2-thia-4,10,13,16,19-pentaaza-tricyclo[19.4.0.0*3,8*]pentacosa-1(25),3,5,7,21,23-hexaene-12,15,18-trione], the IC50 worked out at 200 nM.

Consider `CN1C(=O)[C@H](CCCCN)NC(=O)[C@H](CCCN)NCc2ccccc2Sc2c(ccc(Br)c2Cl)CNC(=O)[C@@H]1Cc1c[nH]c2ccccc12` [Example 168, (12S,15S,18S)-15-(4-Amino-butyl)-18-(3-amino-propyl)-5-bromo-4-chloro-12-(1H-indol-3-ylmethyl)-13-methyl-2-thia-10,13,16,19-tetraaza-tricyclo[19.4.0.0*3,8*]pentacosa-1(25),3,5,7,21,23-hexaene-11,14,17-trione], for which the IC50 was < 400 nM.

Consider `CN1C(=O)[C@H](CCCCN)NC(=O)[C@H](CCCN)NCc2ccccc2Sc2c(Cl)ncc(Cl)c2CNC(=O)[C@@H]1Cc1c[nH]c2ccccc12` [Example 152], for which the half-inhibitory concentration (IC50) is < 390 nM.

As for `CN1C(=O)[C@H](CCCCN)NC(=O)[C@H](CCC(N)=O)NCc2ccccc2Sc2c(cc(-c3ccccc3)cc2C(F)(F)F)CNC(=O)[C@@H]1Cc1c[nH]c2ccccc12` [Example 155, 3-[(11S,14S,17S)-14-(4-Amino-butyl)-17-(1H-indol-3-ylmethyl)-16-methyl-12,15,18-trioxo-23-phenyl-25-trifluoromethyl-2-thia-10,13,16,19-tetraaza-tricyclo[19.4.0.0*3,8*]pentacosa-1(25),3,5,7,21,23-hexaen-11-yl]-propionamide], the IC50 came out at 2700 nM.

In the case of `CN1C(=O)[C@H](CCCCN)NC(=O)[C@H](CCCN)NCc2ccc(-c3ccccc3)cc2Sc2c(Cl)cccc2CNC(=O)[C@@H]1Cc1c[nH]c2ccccc12` [Example 220, (12S,15S,18S)-15-(4-Amino-butyl)-18-(3-amino-propyl)-4-chloro-12-(1H-indol-3-ylmethyl)-13-methyl-24-phenyl-2-thia-10,13,16,19-tetraaza-tricyclo[19.4.0.0*3,8*]pentacosa-1(25),3,5,7,21,23-hexaene-11,14,17-trione], the IC50 was 5800 nM.

With `CN1C(=O)[C@H](CCCCN)NC(=O)[C@@H](CCCN)NCc2cccnc2Sc2c(ccc(-c3ccccc3)c2Cl)CNC(=O)[C@@H]1Cc1c[nH]c2ccccc12` [Example 126, (11R,14S,17S)-14-(4-Amino-butyl)-11-(3-amino-propyl)-25-chloro-17-(1H-indol-3-ylmethyl)-16-methyl-24-phenyl-2-thia-4,10,13,16,19-pentaaza-tricyclo[19.4.0.0*3,8*]pentacosa-1(25),3,5,7,21,23-hexaene-12,15,18-trione], the IC50 was found to be 30300 nM.
